The source of these data is patent US10183039B2, “Methods for the production of collagen IV” (Vanderbilt University, priority 2013, dated 2019).

The target in data set [1] is T1, human peroxidasin (Homo sapiens, UniProt Q92626). The following applies: compared with reagent-grade PBS (FIG. 8D).
Experimental: (§1) (FIG. 8A) Matrix pellets isolated from KI-treated PFHR9 cell culture were extensively washed into 10 mM phosphate buffer (pH 7.4) supplemented with 100 mM KF to maintain ionic strength. Potassium salts of Cl— or Br— were added in indicated amounts. 1 hr reactions at 37° C. were initiated by addition of H2O2 to 1 mM and stopped by freezing at −20° C. […] Reagent KCl was commercially obtained and unaltered prior to analysis. 100 mM solutions were made with 18MΩ deionized water. (FIG. 8C) Coomassie blue stained gel of collagenase digested PFHR-9 matrix reaction assay. Reaction buffered contained 10 mM phosphate buffer (pH 7.4), 100 mM Br-Free or Commercially obtained reagent grade KCl, as well as 1 mM H2O2 and 200 μM PHG where appropriate. […] Reactions were run for 10 minutes at 37° C. with 10 μM H2O2 as the terminal oxidant. Dose-response curve run in the presence of 1× Br-Free PBS. Reactions were quenched with 0.2 mg/ml Catalase, 20 mM Methionine, and 1 mM PHG. EC50 value±95% C.I. from two independent experiments with each data point plotted and fit.
(§2) HEK293 cells stably transfected with the human peroxidasin coding sequence27 were grown to confluency, and the medium was changed to serum-free DMEM/F12 plus 5 μM hematin plus 5 mM sodium butyrate. […]
For data set [2] the following is noted: cited from earlier work.
For data set [3], the target named is T1, human peroxidasin. The experiment in a line: biochemical.
Experimental: as §1, §2
For data set [4], the system named is Drosophila melanogaster w1118. To be noted: in vivo. How it is done: FIGS. 11A-C. […] WT Eggs from 3 day Br-depleted and Br-Added females were collected and transferred to new 35 mm culture dishes filled with 3 ml of vitamin and mineral spiked phytagel as the semi-solid support. 100 μL of Yeast paste±100 μM Br—(200 mg yeast/500 μL ddH2O) was added to the center of each dish. Larvae were transferred to fresh dishes and counted every 24-36 hours. WT flies were reared in the presence of 80 mM total Br-Free NaCl. For Br-Added conditions, both the phytagel and yeast paste were spiked with 100 μM NaBr to ensure constant and consistent exposure. Adults were fed identical food as part of the depletion regime. PxnF07229 homozygous larvae were separated from heterozygous larvae and collected 48 hours after hatching on a Br-Free vs Br-Added plates from parents fed a standard diet. After transfer to these fresh Br-experimental diet plates, they were transferred and counted similarly to the WT larvae under normal 20 mM NaCl conditions. The experimental cohorts [Br-Free (n=34), Br-Added (n=40), Br-Free PxnF07229 (n=14), and Br-Added PxnF07229 (n=19)] were followed until death or 2-days after eclosion of the last fly in the cohort. […] Scale bars in the insets represent 200 μm, and in the whole pictures 500 μm. The image of PxnF07229 larvae is from a Br-Added experimental diet. (FIG. 11C) Representative pictures of the corresponding gut dissections to FIG. 11B. Scale bars are 500 μm.
(FIG. 17A) Generational Br-depletion scheme (FIG. 17B). Generation 1 survival and time-to-development curves for w^1118 flies on the standard diet vs experimental diets. Embryos from mothers fed a standard diet were placed on the indicated diet, and progeny were scored every 24 hours. […] Data plotted as the group median±interquartile range. N=30 for each group. […] (FIG. 17C) Generation 2 developmental survival on experimental diets. n>40 for each cohort. Tested by Log-Rank test. (FIG. 17D) Percentage of eggs (mean+/−95% C.I.) completing embryogenesis from mothers reared on Br-free^DEP or Br-added^DEP diets for […]. In the Br-free^DEP experimental group, mothers were fed Br-free synthetic diet containing 80 mM total NaCl (Br-free^DEP) for 3 days prior to egg collection. The Br-added^DEP was treated in the same manner except that 100 μM NaBr was added to all food components of the Br-free^DEP synthetic diet. […] Analyzed by the Mann-Whitney U test. (FIG. 17E) Survival curve for w^1118 flies under Br-free^DEP or Br-added^DEP dietary conditions. […] Associated larval Br-content was measured by EINAA. Bonds/hexamer were calculated from the Western blot. […] BMs from 15 independent sections for each group were evaluated for thickness and the histograms plotted. […]

pEC50: −log10 of the molar value. Where two headings read alike, the source gives them in different places.

T1 sequence (Q92626 27-1479): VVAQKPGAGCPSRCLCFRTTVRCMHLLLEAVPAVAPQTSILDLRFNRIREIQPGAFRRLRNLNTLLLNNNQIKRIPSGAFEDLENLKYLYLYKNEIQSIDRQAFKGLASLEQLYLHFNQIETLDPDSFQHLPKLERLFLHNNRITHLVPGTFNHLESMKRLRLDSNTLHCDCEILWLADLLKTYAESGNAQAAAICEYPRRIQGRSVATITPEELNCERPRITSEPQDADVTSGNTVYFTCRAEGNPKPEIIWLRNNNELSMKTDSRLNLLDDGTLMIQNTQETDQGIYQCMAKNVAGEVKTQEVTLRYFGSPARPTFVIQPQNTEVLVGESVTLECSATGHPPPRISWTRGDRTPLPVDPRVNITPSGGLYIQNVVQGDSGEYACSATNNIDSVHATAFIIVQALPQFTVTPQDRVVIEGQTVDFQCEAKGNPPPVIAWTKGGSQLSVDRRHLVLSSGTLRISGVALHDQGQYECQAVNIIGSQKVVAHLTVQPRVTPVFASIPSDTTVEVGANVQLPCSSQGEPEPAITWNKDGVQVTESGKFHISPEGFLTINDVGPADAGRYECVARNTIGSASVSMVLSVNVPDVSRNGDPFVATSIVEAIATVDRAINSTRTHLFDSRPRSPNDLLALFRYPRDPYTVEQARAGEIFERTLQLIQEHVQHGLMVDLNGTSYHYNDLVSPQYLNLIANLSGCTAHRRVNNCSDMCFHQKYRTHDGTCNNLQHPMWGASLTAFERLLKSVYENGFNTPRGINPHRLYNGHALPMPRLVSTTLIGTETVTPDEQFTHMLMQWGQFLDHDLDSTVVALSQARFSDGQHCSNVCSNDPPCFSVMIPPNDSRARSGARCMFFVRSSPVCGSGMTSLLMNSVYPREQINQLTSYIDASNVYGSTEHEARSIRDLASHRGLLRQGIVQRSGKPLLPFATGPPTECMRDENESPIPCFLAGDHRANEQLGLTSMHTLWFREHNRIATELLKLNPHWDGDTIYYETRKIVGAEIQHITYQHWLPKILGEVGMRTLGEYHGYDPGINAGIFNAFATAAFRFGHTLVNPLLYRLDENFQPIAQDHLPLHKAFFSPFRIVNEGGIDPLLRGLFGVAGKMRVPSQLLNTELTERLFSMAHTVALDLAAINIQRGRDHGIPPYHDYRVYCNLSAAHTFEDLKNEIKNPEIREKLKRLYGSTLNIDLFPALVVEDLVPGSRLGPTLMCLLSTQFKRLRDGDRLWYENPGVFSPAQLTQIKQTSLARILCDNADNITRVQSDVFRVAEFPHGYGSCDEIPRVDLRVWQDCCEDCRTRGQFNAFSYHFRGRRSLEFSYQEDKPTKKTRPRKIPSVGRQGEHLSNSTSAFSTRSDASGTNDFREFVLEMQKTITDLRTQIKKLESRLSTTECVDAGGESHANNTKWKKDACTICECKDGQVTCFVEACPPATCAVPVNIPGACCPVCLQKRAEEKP
Experimental for PFHR-9 cells: (FIG. 10A) The murine PFHR-9 cell-culture model of basement membranes was cultured for 7 days in the presence of either commercial DMEM+5% FBS or adapted Br-Free DMEM +5% FBS dialyzed against Br-Free HBSS. Media was changed every 24 hours with the addition of 50 μg/ml ascorbic acid and NaBr added where noted. The cell deposited matrix was harvested, collagenase digested, and subjected to SDS-PAGE. NC1 crosslinking content is graphed as the mean±95% C.I. (n=3) with a representative gel depicted.
Bromine was systematically eliminated from DMEM by making the media from individual components without chloride counter ions, and using Br-Free chloride as the only halide source.

Usually pEC50 stands for −log10 of the EC50, conventionally taken in molar units. A lower pEC50 goes with a large EC50. Take `Br` [bromide]: at human peroxidasin [1], the “S═N bond formation on Br addition to Br-Free PBS” value is “recued the degree of S═N bond formation observed in reagent-grade PBS”. Besides, in data set [2] (in vivo), the “bromide level at which Bromism occurs” value is recorded as > 12 mmol/L and the “half-life in the human body” value is reported as 12 days. Besides, the “serum bromide level at which toxicity (bromism) occurs” value in data set [2] is ~12 mM. The “serum bromide level at which toxicity (bromism) occurs” value in data set [2] (listed as Br^−) is recorded as > 12 mM. In addition, the negative-log EC50 (pEC50) at human peroxidasin [3] is 5.57. In addition, in data set [4], the “Generation 2 larval survival” value was “rescued”, the “developmental progression of PxnF07229 larvae” value is “unable to promote developmental progression”, the “median time to eclosion” value stood at 10 days and the “median time to pupariation” value came to 6 days. Also, in the data set on PFHR-9 cells, the “S═N crosslinking in the collagen IV matrix” value is listed as “rescued physiologic levels of crosslinking” and the “cell proliferation, viability, collagen IV synthesis” value was “no observable difference in cell proliferation, viability, or collagen IV synthesis”.
